Results on 43 compounds are retold here after patent publication US12715896B2 (priority 2020, dated 2026).

The term IC50 denotes the concentration needed to halve the response being measured. As a reminder, the inhibition is the change of the read-out against control, counted positive when it falls.

Structures are written as SMILES. Non-standard residues stand in square brackets, D forms with d. Residues, ends and D or L forms follow the SMILES beside them. *: point of attachment. Met(O2) = CS(=O)(=O)CC[C@H](N)C(=O)O; Cha = N[C@@H](CC1CCCCC1)C(=O)O; Tle = CC(C)(C)[C@H](N)C(=O)O; Nva = CCC[C@H](N)C(=O)O; Cbz = O=C(OCc1ccccc1)*; Boc = CC(C)(C)OC(=O)*

One test concerns the target T1, SARS-CoV-2 M^pro (Severe acute respiratory syndrome coronavirus 2, UniProt P0DTD1). Kind of test: FRET-based enzymatic assay for SARS-CoV-2 main protease. Format: biochemical.
Conditions: not given
Take `CCC[C@H](NC(=O)[C@H](CC(C)C)NC(=O)OCc1ccccc1)C(=O)C(=O)NC1CC1` [Jun8-18-2]: the 50% inhibitory concentration (IC50) was over 20000 nM.
Consider `CCC[C@H](NC(=O)[C@H](CC(C)C)NC(=O)[C@H](CC(C)C)NC(=O)OCc1ccccc1)C(=O)C(=O)NC1CC1` [Jun8-18-4], for which the IC50 was 340 nM.
On the same count and under the same terms, under `CCC[C@H](NC(=O)[C@H](CC(C)C)NC(=O)[C@@H](NC(=O)OCc1ccccc1)C(C)C)C(=O)C(=O)NC1CC1` [Jun8-29-2] stands 480 nM.
`CCC[C@H](NC(=O)[C@H](CC(C)C)NC(=O)[C@H](Cc1ccccc1)NC(=O)OCc1ccccc1)C(=O)C(=O)NC1CC1` [Jun8-29-4] yielded a concentration for half-maximal inhibition (IC50) of 480 nM.
In turn, `CSCC[C@H](NC(=O)[C@H](CC(C)C)NC(=O)[C@H](CC(C)C)NC(=O)OCc1ccccc1)C(=O)C(=O)NC1CC1` [Jun8-43-3] registered an IC50 of 2800 nM.
Same read-out and setting: under `CSCC[C@@H](C=O)NC(=O)[C@H](CC(C)C)NC(=O)[C@H](CC(C)C)NC(=O)OCc1ccccc1` [Jun8-61-4] (Cbz-Leu-Leu-Met-aldehyde) stands 110 nM.
Take `CSCC[C@@H](C=O)NC(=O)[C@H](CC(C)C)NC(C)=O` [Jun8-102-1] (Ac-Leu-Met-aldehyde): 4770 nM corresponded to half-maximal inhibition (IC50).
Same read-out and setting: under `CSCC[C@@H](C=O)NC(=O)[C@H](CC(C)C)NC(=O)OCc1ccccc1` [Jun8-102-2] (Cbz-Leu-Met-aldehyde) stands 910 nM; under `CSCC[C@@H](C=O)NC(=O)[C@H](CC(C)C)NC(=O)OC(C)(C)C` [Jun9-2-3] (Boc-Leu-Met-aldehyde), over 20000 nM; under `CSCC[C@@H](C=O)NC(=O)[C@H](CC(C)C)NC(=O)[C@H](CC(C)C)NC(=O)OC(C)(C)C` [Jun9-2-4] (Boc-Leu-Leu-Met-aldehyde), 390 nM.
In turn, `CSCC[C@@H](C=O)NC(=O)[C@H](CC(C)C)NC(=O)[C@H](Cc1ccccc1)NC(C)=O` [Jun9-2-5] (Ac-Phe-Leu-Met-aldehyde) had a 50% inhibitory concentration (IC50) of 270 nM.
As to `CSCC[C@H](NC(=O)[C@H](CC(C)C)NC(=O)[C@H](CC(C)C)NC(C)=O)C(=O)C(=O)NC1CC1` [Jun9-11-3], it took 540 nM to reach half-maximal inhibition (IC50).
The compound `CSCC[C@H](NC(=O)[C@H](CC(C)C)NC(=O)[C@H](CC(C)C)NC(C)=O)C(=O)C(=O)NC(C)C` [Jun9-11-4] had an IC50 of 5990 nM.
The same measure, in the same setting: under `CSCC[C@H](NC(=O)[C@H](CC(C)C)NC(=O)[C@H](CC(C)C)NC(C)=O)C(=O)C(=O)NCc1ccccc1` [Jun9-11-5] stands 1770 nM; under `CC(C)C[C@H](NC(=O)CNC(=O)OCc1ccccc1)C(=O)N[C@@H](CC[S+](C)[O-])C(=O)C(=O)NC1CC1` (stereo partly drawn) [Jun9-24-1], 510 nM.
Same read-out and setting: next, `CSCC[C@H](NC(=O)[C@H](CC(C)C)NC(=O)[C@H](Cc1ccccc1)NC(C)=O)C(=O)C(=O)NC1CC1` [Jun9-24-3]: 460 nM; `CC(=O)N[C@@H](Cc1ccccc1)C(=O)N[C@@H](CC(C)C)C(=O)N[C@@H](CC[S+](C)[O-])C(=O)C(=O)NC1CC1` (stereo partly drawn) [Jun9-24-4]: 290 nM.
Same read-out and setting: under `CCC[C@H](NC(C)=O)C(=O)N[C@@H](CC(C)C)C(=O)N[C@@H](CCSC)C(=O)C(=O)NC1CC1` [Jun9-24-5] stands 640 nM; under `CSCC[C@H](NC(=O)[C@H](CC(C)C)NC(=O)CNC(=O)OCc1ccccc1)C(=O)C(=O)NC1CC1` [Jun9-47-4], 1200 nM.
In turn, `CCC[C@@H](C=O)NC(=O)[C@H](CC(C)C)NC(=O)[C@H](CC(C)C)NC(C)=O` [Jun9-48-3] (Ac-Leu-Leu-[Nva]-aldehyde) gave an IC50 of 38500 nM.
Turning to `CCC[C@H](NC(=O)[C@H](CC(C)C)NC(=O)[C@H](CC(C)C)NC(C)=O)C(=O)C(=O)NC1CC1` [Jun9-49-1], the 50% inhibitory concentration (IC50) turned out to be 5890 nM.
The same measure, in the same setting: next, `CCC[C@@H](C=O)NC(=O)[C@H](CC(C)C)NC(=O)CNC(=O)OCc1ccccc1` [Jun9-52-3] (Cbz-Gly-Leu-[Nva]-aldehyde): over 20000 nM; `CCC[C@H](NC(=O)[C@H](CC(C)C)NC(=O)CNC(=O)OCc1ccccc1)C(=O)C(=O)NC1CC1` [Jun9-52-4]: 17700 nM.
In the case of `CC(C)C[C@H](NC(=O)CNC(=O)OCc1ccccc1)C(=O)N[C@@H](CCS(C)(=O)=O)C(=O)C(=O)NC1CC1` [Jun9-56-2], inhibition was half-maximal at 130 nM (IC50).
In turn, `CC(=O)N[C@@H](Cc1ccccc1)C(=O)N[C@@H](CC(C)C)C(=O)N[C@@H](CCS(C)(=O)=O)C(=O)C(=O)NC1CC1` [Jun9-56-3] gave a half-maximal inhibitory concentration (IC50) of 140 nM.
`CC(=O)N[C@@H](CC(C)C)C(=O)N[C@@H](CC(C)C)C(=O)N[C@H](C=O)CCS(C)(=O)=O` [Jun9-58-1] (Ac-Leu-Leu-[Met(O2)]-aldehyde) came in with an IC50 of 490 nM.
In turn, `CC(=O)N[C@@H](CC(C)C)C(=O)N[C@@H](CC(C)C)C(=O)N[C@@H](CC[S+](C)[O-])C(=O)C(=O)NC1CC1` (stereo partly drawn) [Jun9-59-2] yielded an IC50 of 360 nM.
Same read-out and setting: under `CC(=O)N[C@@H](CC(C)C)C(=O)N[C@@H](CC(C)C)C(=O)N[C@@H](CCS(C)(=O)=O)C(=O)C(=O)NC1CC1` [Jun9-65-1] stands 180 nM.
`CSCC[C@@H](C=O)NC(=O)[C@H](CC1CCCCC1)NC(=O)[C@@H](NC(C)=O)C(C)(C)C` [Jun9-66-1] (Ac-[Tle]-[Cha]-Met-aldehyde): the midpoint of inhibition, the IC50, lay at 320 nM.
Same read-out and setting: under `CSCC[C@@H](C=O)NC(=O)[C@H](CC(C)C)NC(=O)[C@H](CC1CCCCC1)NC(C)=O` [Jun9-66-2] (Ac-[Cha]-Leu-Met-aldehyde) stands 290 nM; under `CSCC[C@H](NC(=O)[C@H](CC1CCCCC1)NC(=O)[C@@H](NC(C)=O)C(C)(C)C)C(=O)C(=O)NC1CC1` [Jun9-66-3], 1520 nM; under `CSCC[C@H](NC(=O)[C@H](CC(C)C)NC(=O)[C@H](CC1CCCCC1)NC(C)=O)C(=O)C(=O)NC1CC1` [Jun9-66-4], 220 nM.
Compound `CC(=O)N[C@@H](CC1CCCCC1)C(=O)N[C@@H](CC(C)C)C(=O)N[C@@H](CCS(C)(=O)=O)C(=O)C(=O)NC1CC1` [Jun9-82-2] had an IC50 of 100 nM.
The compound `CC(=O)N[C@@H](CC1CCCCC1)C(=O)N[C@@H](CC(C)C)C(=O)N[C@@H](CC[S+](C)[O-])C(=O)C(=O)NC1CC1` (stereo partly drawn) [Jun9-87-4] displayed an IC50 of 270 nM.
Same read-out and setting: next, `CC(C)[C@H](NC(=O)OCc1ccccc1)C(=O)N[C@H](C=O)Cc1ccccc1` [calpain inhibitor III (MDL28170) (57), calpain inhibitor III] (Cbz-Val-Phe-aldehyde): over 20000 nM.

The test is the same for the next values; noted with them: read-out: inhibition against M^pro in primary screening.
Regarding `CC(C)(C)NC(=O)N[C@H](C(=O)N1C[C@H]2[C@@H]([C@H]1C(=O)NC(CC1CCC1)C(=O)C(N)=O)C2(C)C)C(C)(C)C` (stereo partly drawn) [Boceprevir (28), Boceprevir], the inhibition at 20 µM is over 60%.
`CC(C)C[C@@H](C=O)NC(=O)[C@H](CC(C)C)NC(=O)[C@H](CC(C)C)NC(=O)OCc1ccccc1` [MG-132 (43), MG-132] (Cbz-Leu-Leu-Leu-aldehyde): the inhibition at 20 µM was over 60%.
Take `CCCC[C@H](NC(=O)[C@@H]1[C@@H]2[C@H](CN1C(=O)[C@@H](NC(=O)NC1(CS(=O)(=O)C(C)(C)C)CCCCC1)C(C)(C)C)C2(C)C)C(=O)C(=O)NC1CC1` [Narlaprevir (29), Narlaprevir]: the inhibition at 20 µM is over 60%.
Turning to `COc1ccc2c(O[C@@H]3CC4C(=O)N[C@]5(C(=O)NS(=O)(=O)C6CC6)C[C@@H]5/C=C\CCCCN(C)C(=O)C4C3)cc(-c3nc(C(C)C)cs3)nc2c1C` (stereo partly drawn) [Simeprevir (24), Simeprevir], the inhibition at 20 µM is over 60%.

For the next test, the target named is T1, SARS-CoV-2 M^pro.
Assay: not given
As to conditions: melting temperature with compound; DMSO 55.74; 30 μM compound. The test is classed as binding.
For `CC(C)(C)NC(=O)N[C@H](C(=O)N1C[C@H]2[C@@H]([C@H]1C(=O)NC(CC1CCC1)C(=O)C(N)=O)C2(C)C)C(C)(C)C` (stereo partly drawn) [Boceprevir (28), Boceprevir], the “2019-nCoV 3CL TSA Tm” value was 62.41 ± 0.21/6.67 °C.
Regarding `CSCC[C@@H](C=O)NC(=O)[C@H](CC(C)C)NC(=O)[C@H](CC(C)C)NC(C)=O` [Calpain inhibitor II (61), Calpain inhibitor II] (Ac-Leu-Leu-Met-aldehyde), the “2019-nCoV 3CL TSA Tm” value amounted to 62.93 ± 0.14 °C.
Regarding `CC(C)C[C@@H](C=O)NC(=O)[C@@H](NS(=O)(=O)c1ccc(F)cc1)C(C)C` [Calpain inhibitor VI (58), Calpain inhibitor VI], the “2019-nCoV 3CL TSA Tm” value worked out at 55.46 ± 0.14 °C.
The same measure, in the same setting: next, `CCCC[C@@H](C=O)NC(=O)[C@H](CC(C)C)NC(=O)OCc1ccccc1` [Calpeptin (56), Calpeptin]: 56.84 ± 0.00 °C.
Still for that read-out and setting: next, `CCC[C@@H](C=O)NC(=O)[C@H](CC(C)C)NC(=O)[C@H](CC(C)C)NC(=O)OCc1ccccc1` [MG-115 (60), MG-115] (Cbz-Leu-Leu-[Nva]-aldehyde): 60.51 ± 0.28 °C; `CCCC[C@H](NC(=O)[C@@H]1[C@@H]2[C@H](CN1C(=O)[C@@H](NC(=O)NC1(CS(=O)(=O)C(C)(C)C)CCCCC1)C(C)(C)C)C2(C)C)C(=O)C(=O)NC1CC1` [Narlaprevir (29), Narlaprevir]: 60.92 ± 0.14/5.18 °C; `CC(C)[C@H](NC(=O)OCc1ccccc1)C(=O)N[C@H](C=O)Cc1ccccc1` [calpain inhibitor III (MDL28170) (57), calpain inhibitor III] (Cbz-Val-Phe-aldehyde): 55.36 ± 0.14 °C.

The same test, now with this note: shift vs DMSO; 30 μM compound.
In the case of `CSCC[C@@H](C=O)NC(=O)[C@H](CC(C)C)NC(=O)[C@H](CC(C)C)NC(C)=O` [Calpain inhibitor II (61), Calpain inhibitor II] (Ac-Leu-Leu-Met-aldehyde), the “2019-nCoV 3CL TSA ΔTm” value amounted to 6.65 °C.
The same measure, in the same setting: next, `CC(C)C[C@@H](C=O)NC(=O)[C@@H](NS(=O)(=O)c1ccc(F)cc1)C(C)C` [Calpain inhibitor VI (58), Calpain inhibitor VI]: −0.28 °C.
Same read-out and setting: next, `CCCC[C@@H](C=O)NC(=O)[C@H](CC(C)C)NC(=O)OCc1ccccc1` [Calpeptin (56), Calpeptin]: 1.1 °C; `CCC[C@@H](C=O)NC(=O)[C@H](CC(C)C)NC(=O)[C@H](CC(C)C)NC(=O)OCc1ccccc1` [MG-115 (60), MG-115] (Cbz-Leu-Leu-[Nva]-aldehyde): 4.77 °C; `CC(C)[C@H](NC(=O)OCc1ccccc1)C(=O)N[C@H](C=O)Cc1ccccc1` [calpain inhibitor III (MDL28170) (57), calpain inhibitor III] (Cbz-Val-Phe-aldehyde): −0.38 °C.
